Measurements taken from patent publication US20130023589A1, “MEDICATION FOR THERAPY OR PROPHYLAXIS OF ASTHMA” (priority 2011, published 2013).

Test system: primary human bronchial smooth cells (BSMC)
Experiment: WST-1 cell proliferation assay of BSMCs cocultured with DBP-treated BEAS-2B cells
Format: cell-based
Details: 5 μM ginger compound for 1 hour, then coculture with DBP-BEAS for 72 hours; groups A2-7 to A2-10, FIG. 7
Method: (§1) With reference to FIG. 5, the plasticizers-treated bronchial smooth muscle cells are prepared by processing two steps. In the first step, a plasticizer-treated bronchial epithelial cell line is obtained by harvesting a human bronchial epithelial cell line in a chemical plasticizer at 37±1° C. for 6 hours, with each 100 mm incubating plate receiving 2×10^6 cells and with the treatment of the chemical plasticizer to induce the excretion of proinflammatory cytokines in the human bronchial epithelial cell line, such as IL-8 and RANTES, followed by removing the chemical plasticizer from the human bronchial epithelial cell line, reincubating the human bronchial epithelial cell lines in a culturing medium for 24 hours, and finally collecting the supernatants to obtain plasticizers-treated bronchial epithelial cells of the present invention. In specification, the chemical plasticizer of the present invention can be selected from a group of butylbenzyl phthalate (BBP), bis-(2-ethylhexyl) phthalate (BEHP), dibutyl phthalate (DBP) and diethyl phthalate (DEP), and with the concentration of 0.1 to 5.0 μM.
(§2) In the second step, the plasticizer-treated bronchial epithelial cells obtained from the first step are coincubated with a human bronchial smooth muscle cell line to obtain the plasticizer-treated bronchial smooth muscle cells of the present invention. […]
Additionally, with reference to TABLE 2, the BSMCs are placed and preincubated in 96-well culture plates for 24 hours, followed by randomly assigning into 10 groups including A2-1 to A2-10 to carry out various treatments between 10 groups. […] After the various treatments of each group, the proliferation degrees of BSMCs in each group are determined by Premixed WST-1 Cell Proliferation Reagent (Clontech Laboratories Inc., Mountain View, Calif.).

SMILES	plasticizer-induced airway remodeling: proliferation of BSMCs
CCCCCCCCC[C@H](O)CC(=O)CCc1ccc(O)c(OC)c1 [[10]-gingerol]	sufficient in suppressing
CCCCC[C@H](O)CC(=O)CCc1ccc(O)c(OC)c1 [[6]-gingerol]	sufficient in suppressing
CCCCC/C=C/C(=O)CCc1ccc(O)c(OC)c1 [[6]-shogaol]	sufficient in suppressing

Test system: primary human bronchial smooth cells (BSMC)
Experiment: QCM Chemotaxis cell migration assay of BSMCs cocultured with DBP-treated BEAS-2B cells
Format: cell-based
Details: 5 μM ginger compound, then coculture with DBP-BEAS for 24 hours; groups A1-7 to A1-10, FIG. 6
Method: as §1, §2
With reference of TABLE 1, the BSMCs are previously seeded into a migration chamber for 24 hours, with the BSMCs placing on the surface of the migration chamber, and randomly assigned into 10 groups including A1-1 to A1-10 to carry out various treatments between 10 groups. […] After the treatments, the BSMCs of the groups A1-1 to A1-10 are analyzed by a QCM Chemotaxis […] cell migration assay system (Chemicon, Temecula, Calif.; Millipore Corp, Bedford, Mass.), with the BSMCs in each group being stained, lysed and finally quantified on a microplate at 560 nm. […]

SMILES	plasticizer-induced airway remodeling: migration of BSMCs
CCCCCCCCC[C@H](O)CC(=O)CCc1ccc(O)c(OC)c1 [[10]-gingerol]	sufficient in suppressing
CCCCC[C@H](O)CC(=O)CCc1ccc(O)c(OC)c1 [[6]-gingerol]	sufficient in suppressing
CCCCC/C=C/C(=O)CCc1ccc(O)c(OC)c1 [[6]-shogaol]	sufficient in suppressing
